According to US20190105367A1, “ANTIMICROBIAL 4-OXOQUINOLIZINES” (Emergent Product Development Gaithersburg Inc., priority 2011, published 2019):
≈ marks a conversion by molar mass, not a printed value. Like-named read-outs stand apart in the source and are kept apart here.

Legend:
A. baumannii A14 [1] = assay: MIC without and with sub-inhibitory polymyxin B (Example 4); format: cell-based, Acinetobacter baumannii; conditions: 2nd experiment
A. baumannii A472 [2] = assay: as above; format: cell-based, Acinetobacter baumannii; conditions: for MIC: Acinetobacter baumannii
A. baumannii A472 [3] = assay: Preliminary MBC without and with sub-inhibitory polymyxin B (Example 4); format: cell-based, Acinetobacter baumannii; conditions: Acinetobacter baumannii, preliminary MBC
A. baumannii A329 [4] = assay: as above; format: cell-based, Acinetobacter baumannii; conditions: Acinetobacter baumannii, A329, A. baumannii A329, +0.06 μg/ml PB, 2nd experiment, read-out: MBC
A. baumannii A401 [5] = assay: as above; format: cell-based, Acinetobacter baumannii; conditions: Acinetobacter baumannii
A. baumannii NCTC 13301 [6] = assay: MIC without and with sub-inhibitory polymyxin B (Example 4); format: cell-based, Acinetobacter baumannii
A. baumannii A473 = assay: Preliminary MBC without and with sub-inhibitory polymyxin B (Example 4); format: cell-based, Acinetobacter baumannii; conditions: Acinetobacter baumannii, A473, A. baumannii A473, +0.06 μg/ml PB, 2nd experiment, read-out: MBC
Method in brief: (§1)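 Read-out: the minimum concentration at which colonies were reduced by ca. 90% relative to positive control, usually seen as isolated colonies or a clear plate. Plates had been kept 18-20 hours at 37° C beforehand.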

A. baumannii NCTC 13301 [7] = assay: as above; format: cell-based, Acinetobacter baumannii; conditions: Acinetobacter baumannii
Method in brief: as §1

A. baumannii A390 [8] = assay: as above; format: cell-based, Acinetobacter baumannii; conditions: Acinetobacter baumannii, A390, A. baumannii A390, +0.06 μg/ml PB, 2nd experiment, read-out: MBC
Method in brief: as §1

A. baumannii A14 [9] = assay: as above; format: cell-based, Acinetobacter baumannii; conditions: 2nd experiment
Method in brief: as §1

A. baumannii J2 [10] = assay: MIC without and with sub-inhibitory polymyxin B (Example 4); format: cell-based, Acinetobacter baumannii; conditions: for MIC without PB/MIC + PB: A. baumannii J2; for MIC: Acinetobacter baumannii
[11] = test system: Acinetobacter sp. (H064200250); assay: as above; format: cell-based; conditions: for MIC: Acinetobacter
A. baumannii A329 [12] = assay: as above; format: cell-based, Acinetobacter baumannii; conditions: +0.06 μg/ml PB, 2nd experiment
A. baumannii NCTC 13301 [13] = assay: as above; format: cell-based, Acinetobacter baumannii; conditions: +[…] PB, 2nd experiment
A. baumannii ATCC 19606 [14] = assay: as above; format: cell-based, Acinetobacter baumannii; conditions: for MIC without PB/MIC + PB: A. baumannii ATCC 19606; for MIC: Acinetobacter baumannii
A. baumannii A14 [15] = assay: as above; format: cell-based, Acinetobacter baumannii; conditions: 1st experiment
A. baumannii A14 [16] = assay: Preliminary MBC without and with sub-inhibitory polymyxin B (Example 4); format: cell-based, Acinetobacter baumannii; conditions: Acinetobacter baumannii
A. baumannii J2 [17] = assay: as above; format: cell-based, Acinetobacter baumannii; conditions: Acinetobacter baumannii, preliminary MBC
A. baumannii A489 [18] = assay: as above; format: cell-based, Acinetobacter baumannii; conditions: Acinetobacter baumannii, preliminary MBC
A. baumannii A390 [19] = assay: MIC without and with sub-inhibitory polymyxin B (Example 4); format: cell-based, Acinetobacter baumannii; conditions: +0.06 μg/ml PB, 2nd experiment
A. baumannii ATCC 19606 [20] = assay: Preliminary MBC without and with sub-inhibitory polymyxin B (Example 4); format: cell-based, Acinetobacter baumannii; conditions: Acinetobacter baumannii
A. baumannii A489 [21] = assay: MIC without and with sub-inhibitory polymyxin B (Example 4); format: cell-based, Acinetobacter baumannii; conditions: for MIC without PB/MIC + PB: A. baumannii A489; for MIC: Acinetobacter baumannii
A. baumannii A401 [22] = assay: as above; format: cell-based, Acinetobacter baumannii
[23] = test system: strains of A. baumannii and one strain of Acinetobacter sp.; assay: MIC with sub-inhibitory concentrations (0.25x MIC) of polymyxin B, panel of Acinetobacter strains (Example 4); format: cell-based
[24] = A. baumannii A14, +0.06 μg/ml PB

Cc1c(-c2ccc(N)cc2)c(F)cn2c(=O)c(C(=O)O)cc(C3CC3)c12 [Compound 7, 8-(4-amino-phenyl)-1-cyclopropyl-7-fluoro-9-methyl-4-oxo-quinolizine-3-carboxylic acid]
MIC (A. baumannii A14 [1]; [24]): 2 µg/mL (≈ 5.68 µM)
MIC without PB/MIC + PB (A. baumannii A14 [1]; [24]): 8
MIC (A. baumannii A14 [1]; Acinetobacter baumannii, A14, A. baumannii A14, without PB, read-out: MIC): 16 µg/mL (≈ 45.4 µM)
MIC without PB/MIC + PB (A. baumannii A472 [2]; A. baumannii A472, ratio, PB […], 1st experiment): ≥128
MIC (A. baumannii A472 [2]; A472, A. baumannii A472, +[…] PB, 2nd experiment, read-out: MIC): ≤ 0.03 µg/mL
MIC (A. baumannii A472 [2]; A472, read-out: MIC +[…] PB, A. baumannii A472, +[…] polymyxin B, 1st experiment): ≤ 0.03 µg/mL
MBC (A. baumannii A472 [3]; A472, A. baumannii A472, +[…] PB, 2nd experiment, read-out: MBC): ≤ 0.03 µg/mL
MBC (A. baumannii A472 [3]; A472, read-out: MBC +[…] PB, A. baumannii A472, +[…] polymyxin B, 1st experiment): ≤ 0.03 µg/mL
MBC (A. baumannii A329 [4]): 2 µg/mL (≈ 5.68 µM)
MBC (A. baumannii A401 [5]; A401, A baumannii A 401, +0.06 μg/ml PB, 2nd experiment, read-out: MBC): 0.5 µg/mL (≈ 1.42 µM)
MBC (A. baumannii A401 [5]; A401, read-out: MBC +0.06 μg/ml PB, A baumannii A 401, +0.06 μg/ml polymyxin B, 1st experiment): 0.5 µg/mL
MIC without PB/MIC + PB (A. baumannii NCTC 13301 [6]; A. baumannii NCTC 13301, ratio, PB […], 1st experiment): 256
MIC (A. baumannii NCTC 13301 [6]; Acinetobacter baumannii, NCTC13301, read-out: MIC +[…] PB): 0.06 µg/mL (≈ 0.17 µM)
MBC (A. baumannii A473): 0.06 µg/mL (≈ 0.17 µM)
MBC (A. baumannii NCTC 13301 [7]; NCTC13301, A. baumannii NCTC 13301, +[…] PB, preliminary MBC, 2nd experiment, read-out: MBC): ≤ 0.03 µg/mL
MBC (A. baumannii NCTC 13301 [7]; NCTC13301, read-out: MBC +[…] PB): 0.06 µg/mL (≈ 0.17 µM)
MBC (A. baumannii A390 [8]): 0.125 µg/mL (≈ 0.355 µM)
MBC (A. baumannii A14 [9]; [24]): 2 µg/mL (≈ 5.68 µM)
MBC (A. baumannii A14 [9]; Acinetobacter baumannii, A14, A. baumannii A14, without PB, read-out: MBC): 16 µg/mL (≈ 45.4 µM)
MIC without PB/MIC + PB (A. baumannii J2 [10]; +[…] PB, 2nd experiment): ≥128
MIC without PB/MIC + PB (A. baumannii J2 [10]; ratio, PB […], 1st experiment): ≥512
MIC (A. baumannii J2 [10]; J2, A. baumannii J2, +[…] PB, 2nd experiment, read-out: MIC): ≤ 0.03 µg/mL
MIC (A. baumannii J2 [10]; J2, read-out: MIC +[…] PB, A. baumannii J2, +[…] polymyxin B, 1st experiment): ≤ 0.03 µg/mL
MIC without PB/MIC + PB ([11]; Acinetobacter spp. H064200250 (OXA51), +[…] PB, 2nd experiment): ≥512
MIC without PB/MIC + PB ([11]; Acinetobacter spp. H064200250, ratio, PB […], 1st experiment): 32
MIC ([11]; Acinetobacter spp. H064200250 (OXA51), +[…] PB, 2nd experiment, read-out: MIC): ≤ 0.03 µg/mL
MIC ([11]; read-out: MIC +[…] PB, Acinetobacter spp. H064200250, +[…] polymyxin B, 1st experiment): 0.25 µg/mL (≈ 0.709 µM)
MIC without PB/MIC + PB (A. baumannii A329 [12]; A. baumannii A329): 8
MIC (A. baumannii A329 [12]; Acinetobacter baumannii, A329, A. baumannii A329, read-out: MIC): 2 µg/mL (≈ 5.68 µM)
MIC without PB/MIC + PB (A. baumannii NCTC 13301 [13]; A. baumannii NCTC 13301): ≥512
MIC (A. baumannii NCTC 13301 [13]; Acinetobacter baumannii, NCTC13301, A. baumannii NCTC 13301, read-out: MIC): ≤ 0.03 µg/mL
MIC without PB/MIC + PB (A. baumannii ATCC 19606 [14]; +0.06 μg/ml PB, 2nd experiment): ≥8
MIC without PB/MIC + PB (A. baumannii ATCC 19606 [14]; ratio, PB 0.06 μg/ml, 1st experiment): ≥16
MIC (A. baumannii ATCC 19606 [14]; ATCC19606, A. baumannii ATCC 19606, +0.06 μg/ml PB, 2nd experiment, read-out: MIC): ≤ 0.03 µg/mL
MIC (A. baumannii ATCC 19606 [14]; ATCC19606, read-out: MIC +0.06 μg/ml PB, A. baumannii ATCC 19606, +0.06 μg/ml polymyxin B, 1st experiment): ≤ 0.03 µg/mL
MIC +0.06 μg/ml PB (A. baumannii A14 [15]; +0.06 μg/ml polymyxin B): 1 µg/mL
MIC without PB/MIC + PB (A. baumannii A14 [15]; ratio, PB 0.06 μg/ml): 32
MBC (A. baumannii A14 [16]; A14, read-out: MBC +0.06 μg/ml PB): 1 µg/mL (≈ 2.84 µM)
MBC (A. baumannii A14 [16]; A. baumannii A14, without polymyxin B, preliminary MBC, 1st experiment, read-out: MBC without PB): 16 µg/mL (≈ 45.4 µM)
MBC (A. baumannii J2 [17]; J2, A. baumannii J2, +[…] PB, 2nd experiment, read-out: MBC): ≤ 0.03 µg/mL
MBC (A. baumannii J2 [17]; J2, read-out: MBC +[…] PB, A. baumannii J2, +[…] polymyxin B, 1st experiment): ≤ 0.03 µg/mL
MBC (A. baumannii A489 [18]; A489, A. baumannii A489, +[…] PB, 2nd experiment, read-out: MBC): ≤ 0.03 µg/mL
MBC (A. baumannii A489 [18]; A489, read-out: MBC +[…] PB, A. baumannii A489, +[…] polymyxin B, 1st experiment): ≤ 0.03 µg/mL
MIC without PB/MIC + PB (A. baumannii A390 [19]; A. baumannii A390): 128
MIC (A. baumannii A390 [19]; Acinetobacter baumannii, A390, A. baumannii A390, read-out: MIC): 0.125 µg/mL (≈ 0.355 µM)
MBC (A. baumannii ATCC 19606 [20]; ATCC19606, A. baumannii ATCC 19606, +0.06 μg/ml PB, 2nd experiment, read-out: MBC): ≤ 0.03 µg/mL
MBC (A. baumannii ATCC 19606 [20]; ATCC19606, read-out: MBC +0.06 μg/ml PB, A. baumannii ATCC 19606, +0.06 μg/ml polymyxin B, 1st experiment): ≤ 0.03 µg/mL
MIC without PB/MIC + PB (A. baumannii A489 [21]; +[…] PB, 2nd experiment): ≥256
MIC without PB/MIC + PB (A. baumannii A489 [21]; ratio, PB […], 1st experiment): ≥256
MIC (A. baumannii A489 [21]; A489, A. baumannii A489, +[…] PB, 2nd experiment, read-out: MIC): ≤ 0.03 µg/mL
MIC (A. baumannii A489 [21]; A489, read-out: MIC +[…] PB, A. baumannii A489, +[…] polymyxin B, 1st experiment): ≤ 0.03 µg/mL
MIC +0.06 μg/ml PB (A. baumannii A401 [22]; A baumannii A 401, +0.06 μg/ml polymyxin B, 1st experiment): 0.5 µg/mL
MIC without PB/MIC + PB (A. baumannii A401 [22]; A baumannii A 401, ratio, PB 0.06 μg/ml, 1st experiment): 8
MIC (A. baumannii A401 [22]; Acinetobacter baumannii, A401, A baumannii A 401, +0.06 μg/ml PB, 2nd experiment, read-out: MIC): 1 µg/mL (≈ 2.84 µM)
MIC range with PB (0.25x MIC) Oct. 1, 2008 n = 8 ([23]; 1st experiment, […] polymyxin B, ATCC 19606, A329, A390 and A473 not taken): ≤0.03 to 1 µg/mL
MIC range with PB (0.25x MIC) Oct. 14, 2008 n = 11 ([23]; 2nd experiment, 0.06 μg/ml polymyxin B, all strains except the ATCC strain): ≤0.03 to 2 µg/mL
